Test results as given in article PMC10005750 (Molecules, 2023).

Columns and labels:
[1] = Pharmacokinetic interaction study after oral administration of DPZ and TAD, alone or in combination, in rats; details: rat; for CL/F (apparent systemic clearance): tadalafil 0.3 mg/kg oral, n = 3, mean ± SD
Protocol: The rat plasma was stored at −70 °C. The plasma samples were thawed at room temperature and then centrifuged at 1800× g (4 °C) for 8 min before pipetting. Using a micropipette, 30 µL of the plasma sample was transferred into a polypropylene microtube, and 10 µL of IS working solution was added to each sample. Further, 0.2 mL of acetonitrile was then added and vortexed for 1 min. […] The supernatant was transferred to an analytical vessel, and 2 µL of the sample was injected into the LC-MS/MS system.
Rats were divided into three groups (n = 3): group 1, DPZ (3 mg/kg); group 2, TAD (0.3 mg/kg); and group 3, DPZ (3 mg/kg) combined with TAD (0.3 mg/kg). Animals were fasted overnight and allowed free access to water.
The peak plasma concentration, Cmax, and Tmax (the time to reach Cmax) for DPZ and TAD were calculated using individual plasma concentration–time profiles. […] The terminal half-life (T1/2) was calculated as ln 2/λz (λz is the elimination rate constant estimated by using the least-squares linear regression method of the terminal log-linear portion of the plasma concentration–time curve). The apparent clearance (CL/F) was calculated as CL/F = dose/AUC0-∞. The Mann–Whitney U test was used to determine the differences in the mean plasma concentration and PK profiles of DPZ and TAD between the single and combined administration groups. Statistical analysis was performed using SPSS Statistics (version 26.0; IBM SPSS Statistics for Windows, Armonk, NY, USA), and a p-value < 0.05 was considered statistically significant.

[2] = Plasma sample stability at low and high QC under storage and handling conditions
Protocol: Standard stock solutions of DPZ, TAD, and LPZ (IS) were prepared in methanol at a concentration of 100 µg/mL and stored at −20 °C. Working solutions were prepared by diluting the stock solutions with 50% methanol. The concentration of DPZ and TAD ranged from 1 to 200 ng/mL. […] The IS working solution was prepared by diluting the stock solution with 50% methanol to a concentration of 20 ng/mL. All working stock solutions were prepared and stored at −20 °C until use. Calibration standards and QC samples of DPZ and TAD in rat plasma were diluted with the corresponding working solutions and blank rat plasma. Drug-free plasma, that is, control (blank) plasma, stored in a deep freezer, was completely thawed at room temperature before use. Ten percent spiking with working DPZ and TAD stock solutions was performed in blank plasma. The spiked QC samples were stored at −70 °C for stability studies.
Stability analyses of the stock solutions were performed at room temperature for 3 h and under refrigerated conditions (4 °C) for 14 days. The stability of the plasma analytes was tested for low and high QC under pre-specified conditions: room temperature for 5 h, refrigeration (4 °C) for 14 days, autosampler (10 °C) for 20 h, four cycles of freezing-thawing, and finally frozen conditions (−70 °C) for 28 days for long-term stability.

[3] = male, Sprague-Dawley, plasma, po
[4] = male, Sprague-Dawley, plasma, po, 0.3 mg/kg

In the case of `CN1CC(=O)N2[C@H](c3ccc4c(c3)OCO4)c3[nH]c4ccccc4c3C[C@@H]2C1=O` [Tadalafil, tadalafil], the Tmax [1, 3] is reported as 0.5 h, the half-life [1, 3] is reported as 1.96 ± 0.212 h and the AUC(0-inf) [1, 4] is reported as 50.4 ± 23.6 ng·h/mL. The AUC(0-t) [1, 4] was 47 ± 24.4 ng·h/mL, the Cmax [1, 4] was 17.8 ± 6 ng/mL and the MRT last [1, 4] was 2.53 ± 0.214 h. The Tmax [1, 4] was 0.5 h, the half-life [1, 4] was 1.52 ± 0.12 h and the “CL/F (apparent systemic clearance)” value ([1]; alone) was 7.355 ± 4.516 L/h. For the same compound, the “CL/F (apparent systemic clearance)” value ([1]; with DPZ 3 mg/kg) was 11.819 ± 9.852 L/h, the “Plasma sample stability (Mean ± SD, %)” value ([2]; extracted rat plasma sample, autosampler (10 °C, 20 h), nominal 2 ng/mL) was 99.63 ± 6.03% and the “Plasma sample stability (Mean ± SD, %)” value ([2]; extracted rat plasma sample, autosampler (10 °C, 20 h), nominal 160 ng/mL) was 102.18 ± 3.98%. The “Plasma sample stability (Mean ± SD, %)” value ([2]; rat plasma, freeze-thaw (4 cycles), nominal 2 ng/mL) was 95.15 ± 2.69%, the “Plasma sample stability (Mean ± SD, %)” value ([2]; rat plasma, freeze-thaw (4 cycles), nominal 160 ng/mL) was 103.60 ± 1.55% and the “Plasma sample stability (Mean ± SD, %)” value ([2]; rat plasma, refrigeration (4 °C, 14 days), nominal 2 ng/mL) was 93.52 ± 3.03%. The “Plasma sample stability (Mean ± SD, %)” value ([2]; rat plasma, refrigeration (4 °C, 14 days), nominal 160 ng/mL) was 107.44 ± 5.73%, the “Plasma sample stability (Mean ± SD, %)” value ([2]; rat plasma, room temperature (5 h), nominal 2 ng/mL) was 95.75 ± 4.54% and the “Plasma sample stability (Mean ± SD, %)” value ([2]; rat plasma, room temperature (5 h), nominal 160 ng/mL) was 95.18 ± 0.41%. For the same compound, the “Plasma sample stability (Mean ± SD, %)” value ([2]; rat plasma, −70 °C (28 days), nominal 2 ng/mL) was 99.17 ± 3.88%, the “Plasma sample stability (Mean ± SD, %)” value ([2]; rat plasma, −70 °C (28 days), nominal 160 ng/mL) was 104.42 ± 4.78% and the “stability in rat plasma under all examined conditions” value ([2]; rat, plasma) was “stable”.
